We go through 60 compounds from patent publication US8252723B2, “Substituted 1-(3-pyridinyl)pyrazol-4-ylacetic acids, processes for their preparation and their use as herbicides and plant growth regulators” (Bayer CropScience AG, priority 2006, dated 2012).

In the test the test system is summer wheat of the cultivar 'Triso'. The test is described as follows: Plant growth regulation test: culm stabilization of crop plants. The test is classed as in vivo. Particulars: application rate of 30 to 300 g of active substance per hectare, treated at stage BBCH 31, culm length measured after ears had formed. Here is the method: With stirring, the compound of the formula (I) in question was, in the form of a water-dispersible powder, together with a surfactant (customary adjuvant at an application rate of 1 l/ha), mixed with water such that a homogenous spray liquor was formed, and applied at an application rate of 300 l of water/ha (converted).
Seeds of summer wheat of the cultivar ‘Triso’ were sown at a depth of 1 cm in plant pots and cultivated outdoors until treatment.
The plants were treated on a laboratory track sprayer with spray liquors of the test substances at macrostage 3 after having reached about 10% of the maximum longitudinal growth typical for the cultivar (stage BBCH 31) and, after the treatment, returned outdoors.
After the ears had formed, the length of the culms were measured. The culm stabilization was evaluated as a percentage of the untreated control.

As to `COc1ccc(-c2c(CC(=O)O)c(C)nn2-c2cnccc2C)cc1` [Example 1-13], the “longitudinal growth (culm length) of summer wheat” value (from here on “longitudinal growth (culm length)”) is given as “effectively shortened”. With `COC(=O)Cc1c(C)nn(-c2cccnc2)c1-c1ccc(C(C)(C)C)cc1` [Example 2-122], the “longitudinal growth (culm length)” value is listed as “effectively shortened”.

For the compound `COC(=O)Cc1c(C)nn(-c2cccnc2)c1-c1ccc(C(F)(F)F)cc1` [Example 2-28], the “longitudinal growth (culm length)” value was “effectively shortened”. The result for `COC(=O)Cc1c(C)nn(-c2cnccc2C)c1-c1ccc(-c2ccccc2)cc1` [Example 2-41] reads “effectively shortened”; that for `COC(=O)Cc1c(C(=O)OC)nn(-c2cccnc2)c1-c1ccccc1` [Example 2-127], “effectively shortened”; that for `COC(=O)Cc1c(C)nn(-c2cnccc2SC)c1-c1ccc(Cl)cc1` [Example 2-45], “effectively shortened”. As to `CC#CCOC(=O)Cc1c(C)nn(-c2cccnc2)c1-c1ccc(Cl)cc1` [Example 3-118], the “longitudinal growth (culm length)” value is listed as “effectively shortened”.

For the compound `COC(=O)Cc1c(C)nn(-c2cccnc2)c1-c1cc(C)ccn1` [Example 2-136], the “longitudinal growth (culm length)” value is reported as “effectively shortened”. Then `Cc1nn(-c2cccnc2)c(-c2ccccc2)c1CC(=O)OC(C)C` [Example 3-36], with “effectively shortened”; and `COc1ccncc1-n1nc(C)c(CC(=O)O)c1-c1ccc(Cl)cc1` [Example 1-35], with “effectively shortened”. On to `COC(=O)Cc1c(C)nn(-c2cnccc2C)c1-c1ccc(Cl)cc1Cl` [Example 2-23], for which the “longitudinal growth (culm length)” value is recorded as “effectively shortened”. Then `Cc1csc(-c2c(CC(=O)OCC3CC3)c(C)nn2-c2cccnc2)c1` [Example 3-85], with “effectively shortened”. Then `Cc1csc(-c2c(CC(=O)O)c(C)nn2-c2cccnc2)c1` [Example 1-59], with “effectively shortened”; and `Cc1ccncc1-n1nc(C)c(CC(=O)O)c1-c1ccc(C(C)(C)C)cc1` [Example 1-32], with “effectively shortened”; and `COC(=O)Cc1c(C)nn(-c2cccnc2)c1-c1ccc(C)nc1` [Example 2-128], with “effectively shortened”. Then `COC(=O)Cc1c(C)nn(-c2cccnc2)c1-c1ccc(C)s1` [Example 2-61], with “effectively shortened”; and `Cc1nn(-c2cccnc2)c(-c2ccccc2Cl)c1CC(=O)O` [Example 1-31], with “effectively shortened”. For `CCOC(=O)Cc1c(C)nn(-c2cnccc2C)c1-c1ccc(Cl)cc1` [Example 3-1], the “longitudinal growth (culm length)” value is given as “effectively shortened”. In the case of `COc1ccc(-c2c(CC(=O)O)c(C)nn2-c2cccnc2)cn1` [Example 1-62], the “longitudinal growth (culm length)” value is given as “effectively shortened”.

Take `O=C(O)Cc1cnn(-c2cccnc2)c1-c1ccccc1` [Example 1-72]: the “longitudinal growth (culm length)” value is reported as “effectively shortened”. The result for `COc1ccc(-n2nc(C)c(CC(=O)O)c2-c2ccccc2)cn1` [Example 1-5] reads “effectively shortened”. For `COC(=O)Cc1c(C)nn(-c2cnccc2C)c1-c1ccsc1` [Example 2-56], the “longitudinal growth (culm length)” value is recorded as “effectively shortened”.

With `COC(=O)Cc1c(C)nn(-c2cccnc2)c1-c1ccccn1` [Example 2-109], the “longitudinal growth (culm length)” value is recorded as “effectively shortened”.

In the case of `Cc1nn(-c2cccnc2)c(-c2ccccc2)c1CC(=O)OCc1ccccc1` [Example 3-50], the “longitudinal growth (culm length)” value is given as “effectively shortened”. Then `COC(=O)Cc1c(C)nn(-c2cccnc2)c1-c1ccc(Cl)s1` [Example 2-60], with “effectively shortened”; and `Cc1nn(-c2cccnc2)c(-c2ccccc2)c1CC(=O)OCC#Cc1ccccc1` [Example 3-164], with “effectively shortened”. `Cc1ccncc1-n1nc(C)c(CC(=O)O)c1-c1sccc1C` [Example 1-53]: the “longitudinal growth (culm length)” value is “effectively shortened”. Then `Cc1nn(-c2cccnc2)c(-c2ccc(O)nc2)c1CC(=O)OCC1CC1` [Example 3-87], with “effectively shortened”; and `COC(=O)Cc1c(C)nn(-c2ccc(C(F)(F)F)nc2)c1-c1ccccc1` [Example 2-9], with “effectively shortened”; and `CSc1ccncc1-n1nc(C)c(CC(=O)O)c1-c1ccc(Cl)cc1` [Example 1-45], with “effectively shortened”. The result for `COC(=O)Cc1c(C)nn(-c2cccnc2)c1-c1cccc(C(F)(F)F)c1` [Example 2-18] reads “effectively shortened”; that for `Cc1nn(-c2cccnc2)c(-c2ccc(O)nc2)c1CC(=O)O` [Example 1-70], “effectively shortened”; that for `COC(=O)Cc1c(C)nn(-c2cccnc2)c1-c1cc(C)cc(C)c1` [Example 2-43], “effectively shortened”. The result for `COC(=O)Cc1c(C#N)nn(-c2cccnc2)c1-c1ccc(Cl)cc1` [Example 2-147] reads “effectively shortened”; that for `Cc1cccc(-c2c(CC(=O)O)c(C)nn2-c2cnccc2C)c1` [Example 1-38], “effectively shortened”; that for `C=C(Cl)COC(=O)Cc1c(C)nn(-c2cccnc2)c1-c1cc(C)cs1` [Example 3-189], “effectively shortened”. As for `C#CCOC(=O)Cc1cnn(-c2cccnc2)c1-c1ccccc1` [Example 3-64], the “longitudinal growth (culm length)” value is recorded as “effectively shortened”. Turning to `Cc1ccncc1-n1nc(C)c(CC(=O)O)c1-c1ccc(C(=O)O)cc1` [Example 1-39], the “longitudinal growth (culm length)” value is “effectively shortened”. The result for `Cc1nn(-c2cccnc2)c(-c2cccs2)c1CC(=O)O` [Example 1-57] reads “effectively shortened”; that for `CCCc1nn(-c2cccnc2)c(-c2ccc(Cl)cc2)c1CC(=O)OC` [Example 2-89], “effectively shortened”. As to `COC(=O)Cc1c(C)nn(-c2cnccc2Cl)c1-c1ccc(Cl)cc1` [Example 2-29], the “longitudinal growth (culm length)” value is recorded as “effectively shortened”. For the compound `C=C(Cl)COC(=O)Cc1c(C)nn(-c2cccnc2)c1-c1ccc(C)nc1` [Example 3-195], the “longitudinal growth (culm length)” value is given as “effectively shortened”. The result for `CCc1nn(-c2cccnc2)c(-c2ccccc2)c1CC(=O)OC` [Example 2-74] reads “effectively shortened”; that for `Cc1ccncc1-n1nc(C)c(CC(=O)O)c1-c1ccsc1` [Example 1-56], “effectively shortened”. The result for `COC(=O)Cc1c(C)nn(-c2cnccc2OC)c1-c1ccc(Cl)cc1` [Example 2-35] reads “effectively shortened”; that for `Cc1ccc(-c2c(CC(=O)O)c(C)nn2-c2cccnc2)cc1Cl` [Example 1-46], “effectively shortened”; that for `Cc1nn(-c2cnccc2[S+](C)[O-])c(-c2ccccc2)c1CC(=O)O` (stereo not drawn) [Example 1-71], “effectively shortened”. Then `Cc1ccncc1-n1nc(C)c(CC(=O)O)c1-c1ccccc1Cl` [Example 1-22], with “effectively shortened”. For `Cc1ccncc1-n1nc(C)c(CC(=O)O)c1-c1ccc(F)cc1` [Example 1-37], the “longitudinal growth (culm length)” value is “effectively shortened”. Consider `Cc1nn(-c2cccnc2)c(-c2ccccc2)c1CC(=O)OCC1(C)CC1` [Example 3-105], for which the “longitudinal growth (culm length)” value was “effectively shortened”. Then `COC(=O)Cc1c(C)nn(-c2cnccc2C)c1-c1cccc(C(F)(F)F)c1` [Example 2-19], with “effectively shortened”; and `COC(=O)Cc1cnn(-c2cnccc2C)c1-c1ccc(Cl)cc1` [Example 2-133], with “effectively shortened”.

Take `Cc1ccncc1-n1nc(C)c(CC(=O)O)c1-c1ccc(Cl)cc1Cl` [Example 1-23]: the “longitudinal growth (culm length)” value was “effectively shortened”.

Turning to `COC(=O)Cc1c(CO)nn(-c2cccnc2)c1-c1ccc(Cl)cc1` [Example 2-184], the “longitudinal growth (culm length)” value is on record as “effectively shortened”.

For the compound `COc1ccc(-c2c(CC(=O)O)c(C)nn2-c2cccnc2)cc1` [Example 1-14], the “longitudinal growth (culm length)” value is given as “effectively shortened”.

`Cc1nn(-c2cccnc2)c(-c2ccc(F)cc2)c1CC(=O)O` [Example 1-120]: the “longitudinal growth (culm length)” value is listed as “effectively shortened”.

As to `Cc1nn(-c2cccnc2)c(-c2cccc(C(F)(F)F)c2)c1CC(=O)O` [Example 1-18], the “longitudinal growth (culm length)” value is “effectively shortened”. As to `COC(=O)Cc1c(C)nn(-c2cccnc2)c1-c1ccccc1` [Example 2-2], the “longitudinal growth (culm length)” value was “effectively shortened”. Take `Cc1ccncc1-n1nc(C)c(CC(=O)O)c1-c1cccc(Cl)c1` [Example 1-21]: the “longitudinal growth (culm length)” value was “effectively shortened”. Consider `C#CCOC(=O)Cc1c(C)nn(-c2cccnc2)c1-c1ccc(OC)nc1` [Example 3-63], for which the “longitudinal growth (culm length)” value is on record as “effectively shortened”.
